Measured values as given in US6303630A, “Diarylsulfone non-nucleoside reverse transcriptase inhibitors of human immunodeficiency virus” (University of the Sciences in Philadelphia, priority 2000, dated 2001).
Read-outs that look alike come from different tables or passages of the source.

How the values were obtained:
[1] = tested on: T4 lymphocytes (CEM cell line); assay: Cell growth / toxicity control in uninfected T4 lymphocytes (CEM), XTT-formazan; format: cell-based; settings: for IC50: uninfected CEM cells, 6 days, XTT, approximate values, read-out: IC50 (50% inhibitory concentration for cell growth); for activity at 2 µM: dose 2.00 × 10^-6 Molar; for activity at 0.2 µM: dose 2.00 × 10^-7 Molar; for activity at 63.2 µM: dose 6.32 × 10^-5 Molar; for activity at 0.634 µM: dose 6.34 × 10^-7 Molar; for activity at 0.0635 µM: dose 6.35 × 10^-8 Molar
Description: (§1) The NCI procedure is fully described, for example, in a bulletin provided by the National Institutes of Health, National Cancer Institute, Bethesda, Md. 20892, all of which is incorporated herein by reference. As related in the NCI bulletin, the procedure is based on O. W. Weislow et al., "New soluble-formazan assay for HIV-1 cytopathic effects: application to high flux screening of synthetic and natural products for AIDS-antiviral activity", J. Natl. Cancer Inst. 81:577-586 (1989), and is used to test for compounds active against human immunodeficiency virus (HIV), and is designed to detect compounds active at any stage of the virus reproductive cycle. As further related in the NCI bulletin, the assay includes killing of T4 lymphocytes by HIV. Amounts of HIV are added to cells, with a minimum of two cycles of virus reproduction found to be necessary to obtain the required cell killing. Compounds that interact with virions, cells, or virus gene-products to interfere with viral activities will protect cells from cytolysis. All were compared with a positive (e.g., AZT-treated) control evaluation at the same time under identical conditions. The procedure is set forth as follows:
(§2) A candidate compound is first dissolved in a suitable solvent, preferably dimethyl sulfoxide, then diluted 1:100 in cell culture medium before preparing serial half-log10 dilutions. T4 lymphocytes (CEM cell line) are then added and after a brief interval HIV-1 is added, resulting in a 1:200 final dilution of the compound. Uninfected cells with the compound serve as a toxicity control, and infected and uninfected without the compound serve as basic controls. Cultures are then incubated at 37° in a 5% carbon dioxide atmosphere for 6 days. The tetrazolium salt, XTT, is added to all wells, and cultures are incubated to allow formazan color development by viable cells. Individual wells are analyzed spectrophotometrically to quantitate formazan product, and in addition are viewed microscopically for detection of viable cells and confirmation of protective activity. Drug-treated virus-infected cells are compared with drug-treated noninfected cells and with other appropriate controls (untreated infected and untreated noninfected cells, drug-containing wells without cells, etc.) on the same plate. Data are reviewed in comparison with other tests performed at the same time and a determination as to activity is made.

HIV-1 = assay: NCI in vitro anti-HIV drug screen: XTT-formazan assay, protection of T4 lymphocytes (CEM) from HIV-1 cytopathic effects; format: cell-based, human immunodeficiency virus (HIV-1); settings: for EC50: 144 h, HIV-1 infected CEM cells, 6 days, XTT, approximate values, read-out: EC50 (50% effective concentration against HIV cytopathic effects); for inhibition at 2 µM / activity at 2 µM: dose 2.00 × 10^-6 Molar; for inhibition at 6.33 µM / activity at 6.33 µM: dose 6.33 × 10^-6 Molar; for TI50 (IC/EC), Therapeutic Index: IC50/EC50
Method: Compounds of the present invention were evaluated for anti-HIV efficacy by the National Cancer Institute's (NCI) In Vitro Anti AIDS Drug Discovery Program.
as §1, §2

[2] = Homo sapiens, CCRF-CEM, read-out: Percent of Control, Uninfected
[3] = Human immunodeficiency virus 1, CCRF-CEM
[4] = Human immunodeficiency virus 1, CCRF-CEM, read-out: Percent of Protection
[5] = Human immunodeficiency virus 1, Lymphocyte, read-out: Percent of Control, Infected
[6] = dose 2.00 × 10^-4 Molar, listed as Example 21
[7] = dose 2.00 × 10^-5 Molar, listed as Example 21

Compound `CNc1ccc(Cl)cc1S(=O)(=O)c1ccccc1` [Compound 57, 2-phenylsulfonyl-4-chloro-N-methylaniline] has an IC50 ([1]; Homo sapiens, CCRF-CEM, 144 h) greater than 200 µM, an activity at 200 µM ([1]; Homo sapiens, CCRF-CEM, dose 2.00 × 10^-4 Molar, read-out: Percent of Control, Uninfected) of 75.9% and an activity at 20 µM ([1]; Homo sapiens, CCRF-CEM, dose 2.00 × 10^-5 Molar, read-out: Percent of Control, Uninfected) of 87.2%. For the same compound, the activity at 2 µM [1, 2] was 91.5%, the activity at 0.2 µM [1, 2] was 92% and the activity at 63.2 µM [1, 2] was 97.2%. For the same compound, the activity at 6.33 µM ([1]; Homo sapiens, CCRF-CEM, dose 6.33 × 10^-6 Molar, read-out: Percent of Control, Uninfected) was 89.6%, the activity at 0.634 µM [1, 2] was 86.4% and the activity at 0.0635 µM [1, 2] was 91.9%. It also gave an EC50 (HIV-1; [3]) of 9.84 µM, an inhibition at 200 µM (HIV-1; Human immunodeficiency virus 1, CCRF-CEM, dose 2.00 × 10^-4 Molar, read-out: Percent of Protection) of 22% and an inhibition at 20 µM (HIV-1; Human immunodeficiency virus 1, CCRF-CEM, dose 2.00 × 10^-5 Molar, read-out: Percent of Protection) of 94%. It also gave an inhibition at 2 µM (HIV-1; [4]) of 2.94%, an inhibition at 0.2 µM (HIV-1; Human immunodeficiency virus 1, CCRF-CEM, dose 2.00 × 10^-7 Molar, read-out: Percent of Protection) of 0.57% and an inhibition at 63.2 µM (HIV-1; Human immunodeficiency virus 1, CCRF-CEM, dose 6.32 × 10^-5 Molar, read-out: Percent of Protection) of 91.9%. The inhibition at 6.33 µM (HIV-1; [4]) was 22.9%, the inhibition at 0.0635 µM (HIV-1; Human immunodeficiency virus 1, CCRF-CEM, dose 6.35 × 10^-8 Molar, read-out: Percent of Protection) was -1.32% and the inhibition at 0.634 µM (HIV-1; Human immunodeficiency virus 1, CCRF-CEM, read-out: Percent of Protection, dose 6.34 × 10^-7 Molar) was -1.18%. For the same compound, the activity at 200 µM (HIV-1; Human immunodeficiency virus 1, Lymphocyte, dose 2.00 × 10^-4 Molar, read-out: Percent of Control, Infected) was 27.5%, the activity at 20 µM (HIV-1; Human immunodeficiency virus 1, Lymphocyte, dose 2.00 × 10^-5 Molar, read-out: Percent of Control, Infected) was 94.4% and the activity at 2 µM (HIV-1; [5]) was 9.73%. It also gave an activity at 0.2 µM (HIV-1; Human immunodeficiency virus 1, Lymphocyte, dose 2.00 × 10^-7 Molar, read-out: Percent of Control, Infected) of 7.53%, an activity at 63.2 µM (HIV-1; Human immunodeficiency virus 1, Lymphocyte, dose 6.32 × 10^-5 Molar, read-out: Percent of Control, Infected) of 92.5% and an activity at 6.33 µM (HIV-1; [5]) of 28.3%. For the same compound, the activity at 0.634 µM (HIV-1; Human immunodeficiency virus 1, Lymphocyte, dose 6.34 × 10^-7 Molar, read-out: Percent of Control, Infected) was 5.9%, the activity at 0.0635 µM (HIV-1; Human immunodeficiency virus 1, Lymphocyte, dose 6.35 × 10^-8 Molar, read-out: Percent of Control, Infected) was 5.77% and the “TI50 (IC/EC), Therapeutic Index” value (HIV-1) was > 2.03 × 10^-1.

Work on `CNc1ccccc1S(=O)(=O)c1ccccc1[N+](=O)[O-]` [Compound 66, 2-(2-nitrophenylsulfonyl)-N-methylaniline] yielded an activity at 2 µM [1, 2] of 101%, an activity at 0.2 µM [1, 2] of 105% and an activity at 63.2 µM [1, 2] of 23.9%. For the same compound, the activity at 0.634 µM [1, 2] was 99.4%, the activity at 0.0635 µM [1, 2] was 98.5% and the “Percent of Control, Uninfected” value [1, 6] was -4.40%. The “Percent of Control, Uninfected” value [1, 7] was 104.09%, the “Percent of Control, Uninfected” value ([1]; dose 6.33 × 10^-6 Molar, listed as Example 21) was 109.40% and the IC50 ([1]; listed as Example 21) was 43.5 µM. It also gave an EC50 (HIV-1; [3]) of 1.02 µM, an inhibition at 2 µM (HIV-1; [4]) of 93.1% and an inhibition at 6.33 µM (HIV-1; [4]) of 107%. For the same compound, the activity at 2 µM (HIV-1; [5]) was 93.8%, the activity at 6.33 µM (HIV-1; [5]) was 106% and the “TI50 (IC/EC), Therapeutic Index” value (HIV-1; listed as Example 21) was 4.24 × 10^+1. The “Percent of Protection” value (HIV-1; dose 2.00 × 10^-4 Molar, 200 µM, listed as Example 21, 200 µM) was -15.92%, the “Percent of Control, Infected” value (HIV-1; [6]) was -4.33% and the “Percent of Protection” value (HIV-1; dose 2.00 × 10^-5 Molar, 20 µM, listed as Example 21, 20 µM) was 98.73%. The “Percent of Control, Infected” value (HIV-1; [7]) was 98.86%, the “Percent of Protection” value (HIV-1; dose 2.00 × 10^-7 Molar, 0.2 µM, listed as Example 21, 0.2 µM) was 4.77% and the “Percent of Control, Infected” value (HIV-1; dose 2.00 × 10^-7 Molar, listed as Example 21) was 14.29%. The “Percent of Protection” value (HIV-1; dose 6.32 × 10^-5 Molar, 63.2 µM, listed as Example 21, 63.2 µM) was 24.17%, the “Percent of Control, Infected” value (HIV-1; dose 6.32 × 10^-5 Molar, listed as Example 21) was 31.75% and the “Percent of Protection” value (HIV-1; dose 6.34 × 10^-7 Molar, 0.634 µM, listed as Example 21, 0.634 µM) was 19.34%. The “Percent of Control, Infected” value (HIV-1; dose 6.34 × 10^-7 Molar, listed as Example 21) was 27.41%, the “Percent of Protection” value (HIV-1; dose 6.35 × 10^-8 Molar, 0.0635 µM, listed as Example 21, 0.0635 µM) was 2.40% and the “Percent of Control, Infected” value (HIV-1; dose 6.35 × 10^-8 Molar, listed as Example 21) was 12.16%.
